Legend:
B. subtilis 168 = assay: Bliss interaction score (quartile over a dose matrix) (fitness difference); higher = more antagonism (negative = synergy)
Outline: (§1)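 Fitness is OD595 at stationary-phase entry relative to the plate's robust no-drug mean, capped at 1. Single-drug fitness was inferred from combinations. The Bliss score is observed minus product-expected fitness, summarised by quartiles over technical, biological and donor/recipient replicates.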

S. pneumoniae D39V [1] = assay: as above
Outline: as §1

S. aureus Newman = assay: as above
Outline: as §1

S. aureus DSM 20231 = assay: as above
Outline: as §1

S. pneumoniae D39V [2] = assay: fitness (endpoint OD595 vs no drug) (fraction); higher = more growth
Outline: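 Fitness compares growth at the stationary-phase transition with the robust mean of no-drug control wells, as a ratio of optical densities. The ratio is capped at 1. Wells of 384-well plates held 30 µl, or 55 µl for S. pneumoniae, inoculated at OD595 0.01. Readings at OD595 every 30 min for 14 h at 37 °C were corrected against the first reading.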
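Throughout, for Bliss interaction score (quartile over a dose matrix): first quartile when negative (synergy) and third quartile when positive (antagonism).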

C[C@@H](O)[C@H]1C(=O)N2C(C(=O)O)=C(SCCNC=N)C[C@H]12 [Imipenem] + CN1C2=CC=CC=C2N=C3C1=CC=CC3=O [Pyocyanin]
Conditions | Bliss interaction score
B. subtilis 168 | 0.0885
S. aureus DSM 20231 | -0.0657
S. aureus Newman | 0.0283
S. pneumoniae D39V [1] | 0.0503

fitness, S. pneumoniae D39V [2], one replicate
Conditions | first compound 0.005 µg/mL | first compound 0.01 µg/mL | first compound 0.02 µg/mL
partner 0.325 µg/mL | 0.945 | 0.947 | ≥ 1
partner 0.65 µg/mL | 0.979 | 0.959 | 0.957

fitness, S. pneumoniae D39V [2]
Conditions | first compound 0.0065 µg/mL | first compound 0.013 µg/mL | first compound 0.026 µg/mL
partner 0.325 µg/mL | 0.975 | ≥ 1 | 0.983
partner 0.65 µg/mL | 0.936 | 0.929 | 0.892
partner 1.3 µg/mL | 0.591 | 0.698 | 0.657

C[C@@H](O)[C@H]1C(=O)N2C(C(=O)O)=C(SCCNC=N)C[C@H]12 [Imipenem] + CN(C)C(=O)C(CCN1CCC(O)(c2ccc(Cl)cc2)CC1)(c1ccccc1)c1ccccc1 [Loperamide]
Conditions | Bliss interaction score
B. subtilis 168 | -0.203
S. aureus DSM 20231 | 0.0662
S. aureus Newman | 0.0304
S. pneumoniae D39V [1] | 0.0901

fitness, S. pneumoniae D39V [2]
Conditions | first compound 0.005 µg/mL | first compound 0.0065 µg/mL | first compound 0.01 µg/mL | first compound 0.013 µg/mL | first compound 0.02 µg/mL | first compound 0.026 µg/mL
partner 17.14 µg/mL | 0.926 | – | 0.937 | – | 0.952 | –
partner 20 µg/mL | – | ≥ 1 | – | ≥ 1 | – | 0.986
partner 34.28 µg/mL | 0.907 | – | 0.947 | – | 0.942 | –
partner 40 µg/mL | – | ≥ 1 | – | ≥ 1 | – | 0.988
partner 80 µg/mL | – | 0.582 | – | 0.582 | – | 0.625

S. pneumoniae D39V [2], partner 68.57 µg/mL, one replicate
Conditions | fitness
first compound 0.005 µg/mL | 0.935
first compound 0.01 µg/mL | 0.93
first compound 0.02 µg/mL | 0.94

C[C@@H](O)[C@H]1C(=O)N2C(C(=O)O)=C(SCCNC=N)C[C@H]12 [Imipenem] + CN(C)c1cc(NC(=O)CNC(C)(C)C)c(O)c2c1C[C@H]1C[C@H]3[C@H](N(C)C)C(O)=C(C(N)=O)C(=O)[C@@]3(O)C(O)=C1C2=O [Tigecycline]
Conditions | Bliss interaction score
B. subtilis 168 | -0.0658
S. aureus DSM 20231 | 0.0348
S. aureus Newman | -0.0535
S. pneumoniae D39V [1] | 0.0689

fitness, S. pneumoniae D39V [2]
Conditions | first compound 0.005 µg/mL | first compound 0.0065 µg/mL | first compound 0.01 µg/mL | first compound 0.013 µg/mL | first compound 0.02 µg/mL | first compound 0.026 µg/mL
partner 0.65 µg/mL | 0.925 | 0.992 | 0.898 | 0.999 | 0.932 | 0.863
partner 1.3 µg/mL | 0.922 | 0.979 | 0.874 | 0.893 | 0.938 | 0.946
partner 2.6 µg/mL | 0.859 | 0.994 | 0.87 | 0.943 | 0.877 | 0.956

C[C@@H](O)[C@H]1C(=O)N2C(C(=O)O)=C(SCCNC=N)C[C@H]12 [Imipenem] + CN(N=O)C(=O)N[C@@H](C=O)[C@@H](O)[C@H](O)[C@H](O)CO [Streptozotocin]
Conditions | Bliss interaction score
B. subtilis 168 | -0.138
S. aureus DSM 20231 | -0.0317
S. aureus Newman | -0.0113
S. pneumoniae D39V [1] | 0.0577

fitness, S. pneumoniae D39V [2], one replicate
Conditions | first compound 0.005 µg/mL | first compound 0.01 µg/mL | first compound 0.02 µg/mL
partner 1.2 µg/mL | 0.986 | 0.949 | ≥ 1
partner 2.4 µg/mL | 0.983 | 0.931 | 0.97
partner 4.8 µg/mL | 0.917 | 0.86 | 0.94

fitness, S. pneumoniae D39V [2]
Conditions | first compound 0.0065 µg/mL | first compound 0.013 µg/mL | first compound 0.026 µg/mL
partner 1.2 µg/mL | 0.966 | 0.908 | 0.908
partner 2.4 µg/mL | 0.942 | 0.884 | 0.824
partner 4.8 µg/mL | 0.968 | 0.945 | 0.966

C[C@@H](O)[C@H]1C(=O)N2C(C(=O)O)=C(SCCNC=N)C[C@H]12 [Imipenem] + CN[C@@H]1[C@H](O)[C@H](NC)[C@H]2O[C@@]3(O)C(=O)C[C@@H](C)O[C@H]3O[C@@H]2[C@H]1O [Spectinomycin]
Conditions | Bliss interaction score
B. subtilis 168 | -0.0558
S. aureus DSM 20231 | -0.043
S. aureus Newman | -0.0557
S. pneumoniae D39V [1] | 0.0606

fitness, S. pneumoniae D39V [2], one replicate
Conditions | first compound 0.005 µg/mL | first compound 0.01 µg/mL | first compound 0.02 µg/mL
partner 4 µg/mL | 0.988 | 0.983 | ≥ 1
partner 8 µg/mL | 0.914 | 0.886 | 0.948

fitness, S. pneumoniae D39V [2]
Conditions | first compound 0.0065 µg/mL | first compound 0.013 µg/mL | first compound 0.026 µg/mL
partner 4 µg/mL | 0.895 | 0.878 | –
partner 8 µg/mL | 0.878 | 0.864 | 0.813
partner 16 µg/mL | 0.788 | 0.828 | 0.888

C[C@@H](O)[C@H]1C(=O)N2C(C(=O)O)=C(SCCNC=N)C[C@H]12 [Imipenem] + CN[C@@H]1[C@H](O[C@H]2[C@H](O[C@H]3[C@H](O)[C@@H](O)[C@H](N=C(N)N)[C@@H](O)[C@@H]3N=C(N)N)O[C@@H](C)[C@]2(O)C=O)O[C@@H](CO)[C@H](O)[C@H]1O [Streptomycin]
Conditions | Bliss interaction score
B. subtilis 168 | 0.1
S. aureus DSM 20231 | -0.0295
S. aureus Newman | 0.076
S. pneumoniae D39V [1] | 0.0603

fitness, S. pneumoniae D39V [2], one replicate
Conditions | first compound 0.005 µg/mL | first compound 0.01 µg/mL | first compound 0.02 µg/mL
partner 2 µg/mL | ≥ 1 | 0.955 | 0.988
partner 16 µg/mL | 0.779 | 0.813 | 0.786

fitness, S. pneumoniae D39V [2]
Conditions | first compound 0.005 µg/mL | first compound 0.0065 µg/mL | first compound 0.01 µg/mL | first compound 0.013 µg/mL | first compound 0.02 µg/mL | first compound 0.026 µg/mL
partner 2 µg/mL | – | 0.959 | – | 0.868 | – | 0.847
partner 4 µg/mL | 0.965 | 0.923 | 0.986 | 0.903 | 0.97 | 0.886
partner 8 µg/mL | 0.837 | 0.916 | 0.863 | 0.907 | 0.875 | 0.85
